ChEMBL document CHEMBL4340568, “Synthesis of distal and proximal fleximer base analogues and evaluation in the nucleocapsid protein of HIV-1” (Bioorg Med Chem, 2019)
Activity calls are given as the source filed them. No cut-off for these calls is given here.

Experiments:
[1] = tested on: Human immunodeficiency virus 1; assay: Antiviral activity against HIV1; assay type: functional, organism-based
[2] = tested on: Human immunodeficiency virus 1; assay: Binding affinity to HIV1 Nucleocapsid protein expressed in Escherichia coli BL21(DE3) pLysE at 1:1 ratio of compound/protein by 1H NMR spectroscopy

SMILES | Activity [1] | Activity [2]
Nc1ncc(-c2c[nH]cn2)c(=O)[nH]1 | inactive | –
Nc1nc(-c2cc(=O)[nH]c(N)n2)cc(=O)[nH]1 | inactive | –
Nc1ncc(-c2cnc(N)[nH]c2=O)c(=O)[nH]1 | inactive | –
Nc1nc(-c2c[nH]cn2)cc(=O)[nH]1 | inactive | Active
